Results reported in a melting point compilation (Tetko et al.).

SMILES | melting point [°C]
NC1(C(=O)O)CCCCC1 | 300 to 302
Cc1ccc(F)c(-c2nc(C(=O)O)no2)c1 | 107 to 109
O=S1(=O)CCC(I)CC1 | 124 to 126
O=C(c1ccc(O)cc1)c1ccc(F)cc1 | 170 to 172
O=C(O)CCOc1ccc(F)cc1F | 76 to 78
O=C(O)c1cccc(-n2cnnn2)c1 | 168 to 170
CNS(=O)(=O)c1cc(N)ccc1OC | 169 to 171
O=c1[nH]ncc2cccnc12 | 309 to 311
Cc1c(C(=O)O)cc(Br)cc1S(=O)(=O)Cl | 139 to 141
CCOc1cc(C=O)ccc1OCc1cccnc1 | 73 to 75
O=C(O)Cn1ncn2nccc2c1=O | 213 to 215
O=C1CCCN1c1ccc(Cl)c([N+](=O)[O-])c1 | 137 to 139
Cc1cc(C)n2nc(S)nc2n1 | 259 to 261
CC(C)(C)OC(=O)N1C(C(=O)O)CC2CCCCC21 (stereo unspecified) | 133 to 135
O=C1CNC(=O)c2sccc2N1 | 239 to 241
Nc1cc(Cl)c(N)cc1Cl | 164 to 166
Cc1coc(-c2ccc(C)c(N)c2)n1 | 114 to 116
O=c1nc(S)[nH]nc1-c1cc(Cl)sc1Cl | 203 to 205
CCC1C(=O)NC(=S)N(c2ccc(Cl)cc2)C1=O (stereo unspecified) | 148 to 150
Cc1ccc(C=CCC(=O)O)cc1 | 105 to 107
Sc1nnc(C2CC2)n1Cc1ccccc1 | 176 to 178
Cc1cccc(-n2c(S)nnc2-c2ccccc2)c1 | 133 to 135
O=C(O)CCCCCc1ccc(O)cc1 | 104 to 106

SMILES | melting point [°C]
Cc1nnc(-c2ccccc2N)o1 | 145 to 147
O=S(=O)(Cl)c1csc(-c2ccccc2)n1 | 86 to 88
CCCc1cc(N)on1 | 54 to 58
O=C(O)CCc1nc(-c2ccsc2)no1 | 153 to 155
CCOC(=O)Cc1cccc(C#N)c1 | 47 to 49
O=S(=O)(Cl)c1cnn(C2CCOCC2)c1 | 59 to 61
CC(=O)Nc1cc(N)c(F)cc1F | 104 to 106
O=C1CSC(C(F)(F)F)O1 (stereo unspecified) | 65 to 67
Nc1cc2c(cc1N)OCCCO2 | 122 to 124
COc1cc(C=O)cc(O)c1O | 131 to 134
Nc1ncc(Br)nc1C(=O)O | 172 to 174
Nc1c(Cl)ccc2nsnc12 | 89 to 91
O=CC1=C(Sc2ccccc2)CCCC1 | 42 to 44
CSc1ccc(CN2CCNCC2)cc1 | 53 to 55
Cc1c(C(=O)O)oc2c1C(=O)CCC2 | 227 to 229
O=C1Nc2cc3c(cc2C1=O)OCCCO3 | 230 to 232
O=C(O)C1CCN(S(=O)(=O)c2cccnc2)CC1 | 237 to 239
CN(C)C(=O)c1cc(Oc2ccc(N)cc2)ccn1 | 113 to 115
CCc1ccccc1C(=O)O | 62 to 66
O=C(O)c1cc(-c2cccc(Cl)c2)no1 | 182 to 184
NC1CCN(c2ccccc2F)C1=O (stereo unspecified) | 67 to 69
CC(C)(C)OC(=O)N1CCc2[nH]c(=O)c(C#N)cc2C1 | 239 to 241
Cc1cc(C=O)c(C)n1C1CCCCC1 | 75 to 77

SMILES | melting point [°C]
COC(=O)c1cc([N+](=O)[O-])cnc1C | 58 to 60
COc1ccc(-c2ccc(C#N)cc2)cc1 | 102 to 104
O=C(C1CCNCC1)N1CCc2ccccc21 | 67 to 69
CN(CC(=O)O)C1CCCC1O (stereo unspecified) | 150 to 152
CN(C)Cc1ccc(C(N)=O)cc1N | 156 to 158
Nc1ccn(Cc2ccsc2)n1 | 43 to 45
NC1CCN(c2ccccc2Cl)C1=O (stereo unspecified) | 70 to 72
Fc1cccc2cc(I)cnc12 | 77 to 79
Cc1ccc2c(n1)OCCN2 | 109 to 111
N#Cc1ccccc1-c1ccccc1C(=O)O | 168 to 170
Sc1nnnc2ccccc12 | 183 to 185
Nc1cc2c(cc1Br)NC(=O)CO2 | 209 to 211
COc1ccc2c(CCl)cc(=O)oc2c1 | 189 to 191
CC(C)(C)C(N)c1nc(-c2nnc[nH]2)no1 (stereo unspecified) | 169 to 171
CC(C)CN(C(=O)CCl)C1CCS(=O)(=O)C1 (stereo unspecified) | 150 to 155
Nc1ncc(Cc2ccc(F)c(F)c2)s1 | 97 to 99
Nc1cccc2c1C(=O)N(Cc1ccccc1)C2=O | 147 to 149
O=C1CCc2cc(C(=O)O)ccc2N1 | 261 to 263
CCCc1ccc(S(N)(=O)=O)cc1 | 208 to 210
Cn1c(S)nnc1-c1ccc(Cl)cc1 | 113 to 115
O=C(O)c1ccc(C(=O)Nc2ccccc2)cc1 | 309 to 311
CCOC(=O)c1nc(C)oc1N | 123 to 125
Cc1nn(-c2ccc(Cl)cc2)c(C)c1CC(=O)O | 178 to 180

SMILES | melting point [°C]
NNC(=O)CCc1ccco1 | 72 to 74
Cc1oncc1C(=O)Nc1ccc(O)c(C(=O)O)c1 | 249 to 251
O=C(CCl)c1c[nH]c(C(=O)N2CCCC2)c1 | 200 to 204
OC(c1ccccc1)c1cccnc1 (stereo unspecified) | 59 to 61
CC(C)(C)OC(=O)NC1CCN(c2ccc(C#N)cn2)CC1 | 188 to 190
CCOC(=O)CN(CCC#N)c1ccc(OC)cc1 | 61 to 63
O=C(NCc1nnc2n1CCC2)OCC(F)(F)F | 131 to 133
CC(C)c1noc2nc(-c3cccnc3)cc(C(=O)O)c12 | 279 to 281
Cc1ccc(S(=O)(=O)NCC2CCCO2)cc1C(=O)O (stereo unspecified) | 160 to 162
COc1cccc(Cc2nnc(N)s2)c1 | 104 to 106
Cc1cc(C(=O)O)nn1-c1cccc(Cl)c1 | 190 to 192
NC(=O)c1c(NC(=O)CCl)sc2c1CCC2 | 181 to 183
CCCn1c(=O)[nH]c(=O)c2[nH]cnc21 | 288 to 290
Nc1ccc(Sc2ccncc2)cc1 | 169 to 171
Fc1ccc(NCc2ccccn2)c(F)c1 | 52 to 54
Cc1nn(Cc2cccc(Br)c2)cc1C(=O)O | 164 to 166
O=C1OC(C=Cc2ccccc2)=NC1=Cc1cccnc1 | 165 to 167
O=[N+]([O-])c1ccc(O)c(-n2cnnn2)c1 | 199 to 201
CC1C(=O)NC1c1ccccc1 (stereo unspecified) | 92 to 94
COc1cc2nc(N)sc2cc1OC | 224 to 226
NS(=O)(=O)c1cncc(Br)c1 | 199 to 201
CC(C)=CCOc1cccc(C(=O)O)c1 | 86 to 88
Cc1c(Cl)cccc1Nc1nnc(S)s1 | 189 to 191

Second part, the molecule after the results:

melting point [°C] | SMILES
216 to 218 | Nc1nnc(-c2cccc(Br)c2)s1
109 to 111 | CCOC(=O)c1cccnc1SCC(=O)O
167 to 169 | CC(C)(Nc1ccc([N+](=O)[O-])cc1)C(=O)O
153 to 155 | O=C(O)c1ccc(-c2ccccc2)o1
112 to 114 | Oc1ccc(CN2CCCC2)c2cccnc12
127 to 129 | Nc1ncc(Cc2ccc(Cl)cc2)s1
196 to 198 | Cn1nc(C(=O)O)cc1C1CC1
97 to 99 | Oc1ccc2c(c1)OCCCO2
144 to 146 | OC1CNc2c(ccc3ccccc23)C1 (stereo unspecified)
165 to 167 | COc1cc(C=O)cc(OC)c1OCC(N)=O
132 to 134 | O=C(O)c1cc([N+](=O)[O-])cc(F)c1F
168 to 170 | N#Cc1cc(Cl)nc2ccc(Cl)cc12
172 to 174 | Cc1ccc(S(=O)(=O)N(C)C)cc1N
167 to 169 | Cc1c(Br)cc(S(=O)(=O)Cl)cc1C(=O)O
87 to 89 | CC(=O)c1ccc(C(F)(F)F)[nH]c1=O
94 to 98 | C#CCOc1ccc(Br)cc1C=O
124 to 126 | Fc1ccc(OCc2ccc3ccccc3n2)c(Br)c1
116 to 118 | O=c1[nH]nc(-c2cccs2)o1
163 to 165 | Nc1cc(S(=O)(=O)N2CCCC2)ccc1O
219 to 221 | Cc1cc(C(=O)O)c(N)cc1F
219 to 221 | NC(CC(=O)O)c1ccc(C(F)(F)F)cc1 (stereo unspecified)
149 to 151 | C=CC(=O)NC(=O)Nc1ccccc1
137 to 139 | Nc1c(-c2ccc(F)cc2)nc2sccn12
216 to 218 | COc1cc(NC(=O)C(C)C)c(C(=O)O)cc1OC
147 to 149 | Nc1sc2c(c1C(=O)O)CCC2
82 to 84 | CC1CNc2ccccc2NC1
279 to 281 | O=c1[nH]ccc2cc[nH]c12

melting point [°C] | SMILES
53 to 55 | CCOC(=O)CSc1nnc(-c2cccs2)o1
35 to 37 | CN(Cc1cnn(C)c1)C(=O)CCl
239 to 241 | CCOC(=O)c1nnc2ccccc2c1N
122 to 124 | CC(C)(C)OC(=O)Nc1ccc(F)c(N)c1
175 to 177 | CS(=O)(=O)c1ccc(F)c(C(=O)O)c1F
244 to 246 | Cc1sc2ncnc(NCC(=O)O)c2c1C
157 to 159 | O=C(CCl)Nc1cccc(S(=O)(=O)N2CCOCC2)c1
104 to 106 | CCOC(=O)NC(=N)N
56 to 58 | OCC(NCc1ccccc1)C1CC1 (stereo unspecified)
84 to 86 | Nc1nc(Cl)ccc1F
246 to 248 | COc1ccc(C(=O)O)cc1N1CCNC1=O
101 to 103 | COc1ccc(-c2noc(CCl)n2)cc1OC
325 to 327 | O=C1CN(c2ccc(O)cc2)C(=O)N1
173 to 175 | CCC(Nc1nc(C)cs1)C(=O)O (stereo unspecified)
165 to 167 | NC(=S)Nc1cccc2c1CCCC2
257 to 259 | N#Cc1c(N)nc2sc(C(=O)Nc3ccc(Br)cc3)c(N)c2c1-c1ccco1
137 to 139 | Cc1cc2ncc(Br)cn2n1
103 to 105 | CC(Cl)C(=O)NC12CC3CC(CC(C3)C1)C2 (stereo unspecified)
90 to 92 | Fc1ccc2c(Cl)ncnc2c1
95 to 97 | Cc1cc(NCc2ccco2)ncn1
97 to 99 | CCCc1c(C(=O)O)cnn1-c1cccc(F)c1
259 to 261 | Nc1nncc(-c2ccc(Cl)s2)n1
254 to 256 | O=C(O)C1CC(=O)N(c2ccc3c(c2)Cc2ccccc2-3)C1 (stereo unspecified)
179 to 181 | Cn1cc(C(=O)NN)cn1
200 to 202 | CC1CCC(N)(C(=O)O)CC1 (stereo unspecified)
99 to 101 | NNC(=O)CNc1ccccc1F
202 to 204 | COc1ccc(Cc2nnc(S)o2)cc1OC
